# Results reported in US20110268660A1, “METHOD FOR DETECTING DYSPLASIA” (priority 2008, published 2011).
# Legend:
# human EGFR = target: T1, human EGFR (Homo sapiens, UniProt P00533); assay: Fluorescence polarization binding assay; details: dye-labelled ligand 5 nM; human recombinant EGFR/Fc chimera 0-258 nM; 10 min at 30° C.; triplicates; read-out: Kd value towards human EGFR
# T1 construct: purchased R&D systems 344-ER
# Experimental: The fluorescence polarization binding measurements were performed as triplicates in 384-well microplates in a volume of 40 μL in binding buffer (PBS, 0.01% Tween-20, pH 7.5) using a Tecan Safire fluorescence polarisation plate reader at ex646/em678 nm. The concentration of dye-labelled ligand was held constant (5 nM) and the concentrations of the target (human recombinant EGFR/Fc chimera from R&D systems, cat. no 344-ER) was varied from 0-258 nM. Binding mixtures were equilibrated in the microplate for 10 min at 30° C.
# Data fitting was performed via nonlinear regression using SigmaPlot software (version 10) to obtain the Kd value.
# [1] = target: human recombinant EGFR/Fc chimera (R&D systems, cat. no 344-ER) (human) (UniProt P00533); assay: fluorescence polarization, 5 nM dye-labelled ligand, EGFR/Fc titrated 0-258 nM, in solution
Kd (human EGFR),Kd [1],Substance
4.1 nM,,anti-EGFR Affibody His6-ZEGFR:1907-Cys(Cy5**) [Compound 14]
,4.1 nM,anti-EGFR Affibody His6-ZEGFR:1907-Cys(Cy5**) (Compound 14) (designed binder)
